In assay [1] the target is NAMPT (human, recombinant, C-terminally His-tagged) (Homo sapiens, UniProt P43490). Nature of the assay: Time-Resolved Fluorescence Resonance Energy Transfer (TR-FRET) Binding Assay of NAMPT. The conditions noted are these: 6.8 nM NAMPT, 200 nM probe, equilibrated 3 hours, absence of substrates. An outline of the steps: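 Recombinant C-terminally His-tagged human NAMPT (6.8 nM) incubated 3 h at room temperature with 200 nM Oregon Green 488–labelled nicotinamide-competitive probe and 1 nM Tb-anti-His antibody in HEPES pH 7.5, 2% DMSO. TR-FRET ratio Em520/Em495 normalized to controls; IC50 from four-parameter logistic fit.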
A general note: TR-FRET usually uses a lanthanide donor and a delayed reading to cut background.

Assay [2] deals with NAMPT (Homo sapiens, UniProt P43490). Nature of the assay: Time-Resolved Fluorescence Resonance Energy Transfer (TR-FRET) Binding Assay of NAMPT with PRPP. As to conditions: 2 nM NAMPT, 2 nM probe, 200 uM PRPP and 2.5 mM ATP, equilibrated 16 hours. Summed up:
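Final mix: 2 nM NAMPT, 2 nM probe, 1 nM Tb-anti-His antibody, 200 uM PRPP, 2.5 mM ATP, 2% DMSO in 1× assay buffer. Equilibrated 16 hours before TR-FRET read, allowing possible enzymatic modification of compounds.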

SMILES strings stand for the structures.

NAMPT (human, recombinant, C-terminally His-tagged), sequence (P43490 whole entry): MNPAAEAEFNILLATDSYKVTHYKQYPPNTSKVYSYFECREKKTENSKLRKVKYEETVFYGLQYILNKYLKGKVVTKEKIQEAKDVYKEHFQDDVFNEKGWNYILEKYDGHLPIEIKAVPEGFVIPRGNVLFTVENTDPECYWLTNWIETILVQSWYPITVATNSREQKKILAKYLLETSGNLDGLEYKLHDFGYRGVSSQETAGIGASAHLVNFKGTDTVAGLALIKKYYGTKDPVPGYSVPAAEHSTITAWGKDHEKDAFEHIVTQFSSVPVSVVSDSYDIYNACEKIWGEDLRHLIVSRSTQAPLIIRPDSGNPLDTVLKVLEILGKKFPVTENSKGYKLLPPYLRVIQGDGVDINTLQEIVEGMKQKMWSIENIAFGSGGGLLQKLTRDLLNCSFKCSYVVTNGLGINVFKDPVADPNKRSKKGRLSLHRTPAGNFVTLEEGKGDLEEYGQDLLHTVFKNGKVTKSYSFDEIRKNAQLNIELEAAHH
NAMPT, sequence (P43490 whole entry): as above

In the case of `O=C(Nc1ccc(OC2CCN(C(=O)Cc3cc(F)cc(F)c3)CC2)cc1)C1CN(c2cccnn2)C1` [Example 239, N-[4-({1-[(3,5-difluorophenyl)acetyl]piperidin-4-yl}oxy)phenyl]-1-(pyridazin-3-yl)azetidine-3-carboxamide], the figures for the IC50 in assay [1] and in assay [2] were 112 nM and 0.833 nM, respectively.
As to `O=C(Nc1ccc(OC2CCN(C(=O)Cc3cccc(C(F)(F)F)c3)CC2)cc1)C1CN(c2cccnn2)C1` [Example 240, 1-(pyridazin-3-yl)-N-{4-[(1-{[3-(trifluoromethyl)phenyl]acetyl}piperidin-4-yl)oxy]phenyl}azetidine-3-carboxamide], the half-maximal inhibitory concentration (IC50) in assay [1] was determined as 192 nM; in assay [2], 0.925 nM.
Turning to `CC(C)(C)C(=O)N1CCC(Oc2ccc(NC(=O)C3CN(c4cccnn4)C3)cc2)CC1` [Example 241, N-(4-{[1-(2,2-dimethylpropanoyl)piperidin-4-yl]oxy}phenyl)-1-(pyridazin-3-yl)azetidine-3-carboxamide], the half-maximal inhibitory concentration (IC50) in assay [1] came to 131 nM; in assay [2], 0.811 nM.
The matching figures for `O=C(Nc1ccc(OC2CCN(C(=O)c3ccccn3)CC2)cc1)C1CN(c2cccnn2)C1` [Example 242, 1-(pyridazin-3-yl)-N-(4-{[1-(pyridin-2-ylcarbonyl)piperidin-4-yl]oxy}phenyl)azetidine-3-carboxamide]: 278 nM and 1.17 nM.
Regarding `O=C(Nc1ccc(OC2CCN(C(=O)c3cc(F)cc(F)c3)CC2)cc1)C1CN(c2cccnn2)C1` [Example 243, N-(4-{[1-(3,5-difluorobenzoyl)piperidin-4-yl]oxy}phenyl)-1-(pyridazin-3-yl)azetidine-3-carboxamide], the IC50 was determined as 269 nM in assay [1] and 0.97 nM in assay [2].
Turning to `CC(=O)N1CCC(Oc2ccc(NC(=O)C3CN(c4cccnn4)C3)cc2)CC1` [Example 244, -{4-[(1-acetylpiperidin-4-yl)oxy]phenyl}-1-(pyridazin-3-yl)azetidine-3-carboxamide], the IC50 in assay [1] stood at 449 nM; in assay [2] it was 0.916 nM.
Take `O=C(Nc1ccc(OC2CCN(C(=O)c3ccc(Cl)cc3)CC2)cc1)C1CN(c2cccnn2)C1` [Example 245, N-(4-{[1-(4-chlorobenzoyl)piperidin-4-yl]oxy}phenyl)-1-(pyridazin-3-yl)azetidine-3-carboxamide]: the IC50 in assay [1] turned out to be 101 nM; in assay [2], 0.707 nM.
In the same order, the values of `COCC(=O)N1CCC(Oc2ccc(NC(=O)C3CN(c4cccnn4)C3)cc2)CC1` [Example 246, N-(4-{[1-(methoxyacetyl)piperidin-4-yl]oxy}phenyl)-1-(pyridazin-3-yl)azetidine-3-carboxamide] are 178 nM and 0.676 nM.
With `O=C(Nc1ccc(OC2CCN(C(=O)Cc3ccccc3F)CC2)cc1)C1CN(c2cccnn2)C1` [Example 247, N-[4-({1-[(2-fluorophenyl)acetyl]piperidin-4-yl}oxy)phenyl]-1-(pyridazin-3-yl)azetidine-3-carboxamide], the half-maximal inhibitory concentration (IC50) in assay [1] stood at 86 nM; in assay [2] it was 1.02 nM.
In the same order, the values of `CCC(C)(C)C(=O)N1CCC(Oc2ccc(NC(=O)C3CN(c4cccnn4)C3)cc2)CC1` [Example 248, N-(4-{[1-(2,2-dimethylbutanoyl)piperidin-4-yl]oxy}phenyl)-1-(pyridazin-3-yl)azetidine-3-carboxamide] are 82.6 nM and 0.817 nM.
In the case of `O=C(Nc1ccc(OC2CCN(C(=O)c3cccs3)CC2)cc1)C1CN(c2cccnn2)C1` [Example 249, 1-(pyridazin-3-yl)-N-(4-{[1-(thiophen-2-ylcarbonyl)piperidin-4-yl]oxy}phenyl)azetidine-3-carboxamide], the figures for the IC50 in assay [1] and in assay [2] were 59.9 nM and 0.6 nM, respectively.
As to `O=C(Nc1ccc(OC2CCN(C(=O)c3cccc(Cl)c3)CC2)cc1)C1CN(c2cccnn2)C1` [Example 250, N-(4-{[1-(3-chlorobenzoyl)piperidin-4-yl]oxy}phenyl)-1-(pyridazin-3-yl)azetidine-3-carboxamide], the IC50 stood at 107 nM in assay [1] and 0.641 nM in assay [2].
The matching figures for `O=C(Nc1ccc(OC2CCN(C(=O)C3CC3)CC2)cc1)C1CN(c2cccnn2)C1` [Example 251, N-(4-{[1-(cyclopropylcarbonyl)piperidin-4-yl]oxy}phenyl)-1-(pyridazin-3-yl)azetidine-3-carboxamide]: 230 nM and 0.88 nM.
In the case of `O=C(Nc1ccc(OC2CCN(C(=O)CC(F)(F)F)CC2)cc1)C1CN(c2cccnn2)C1` [Example 252, 1-(pyridazin-3-yl)-N-(4-{[1-(3,3,3-trifluoropropanoyl)piperidin-4-yl]oxy}phenyl)azetidine-3-carboxamide], the IC50 amounted to 238 nM in assay [1] and 1.1 nM in assay [2].
Take `CC(C)C(=O)N1CCC(Oc2ccc(NC(=O)C3CN(c4cccnn4)C3)cc2)CC1` [Example 253, N-(4-{[1-(2-methylpropanoyl)piperidin-4-yl]oxy}phenyl)-1-(pyridazin-3-yl)azetidine-3-carboxamide]: the IC50 was 134 nM in assay [1] and 0.639 nM in assay [2].
Take `CC(C)(C)CC(=O)N1CC(Oc2ccc(NC(=O)C3CN(c4ccnnc4)C3)cc2)C1` [Example 254, N-(4-{[1-(3,3-dimethylbutanoyl)azetidin-3-yl]oxy}phenyl)-1-(pyridazin-4-yl)azetidine-3-carboxamide]: the IC50 in assay [1] stood at 33.9 nM; in assay [2], 11.2 nM.
For the compound `O=C(Nc1ccc(OC2CN(C(=O)C3CCCCC3)C2)cc1)C1CN(c2ccnnc2)C1` [Example 255, N-(4-{[1-(cyclohexylcarbonyl)azetidin-3-yl]oxy}phenyl)-1-(pyridazin-4-yl)azetidine-3-carboxamide], the values for the IC50 in assay [1] and in assay [2] were 47.3 nM and 37.8 nM, respectively.
In the case of `O=C(Nc1ccc(OC2CN(C(=O)CC3CCOCC3)C2)cc1)C1CN(c2ccnnc2)C1` [Example 256, 1-(pyridazin-4-yl)-N-(4-{[1-(tetrahydro-2H-pyran-4-ylacetyl)azetidin-3-yl]oxy}phenyl)azetidine-3-carboxamide], the figures for the 50% inhibitory concentration (IC50) in assay [1] and in assay [2] were 91.1 nM and 38.4 nM, respectively.
Consider `CC1CC1C(=O)N1CC(Oc2ccc(NC(=O)C3CN(c4ccnnc4)C3)cc2)C1` (stereo not shown) [Example 257, N-[4-({1-[(2-methylcyclopropyl)carbonyl]azetidin-3-yl}oxy)phenyl]-1-(pyridazin-4-yl)azetidine-3-carboxamide], for which the half-maximal inhibitory concentration (IC50) in assay [1] was found to be 64.7 nM; in assay [2] it was 41.9 nM.
With `O=C(Nc1ccc(OC2CN(C(=O)CC(F)(F)F)C2)cc1)C1CN(c2ccnnc2)C1` [Example 258, 1-(pyridazin-4-yl)-N-(4-{[1-(3,3,3-trifluoropropanoyl)azetidin-3-yl]oxy}phenyl)azetidine-3-carboxamide], the figures for the IC50 in assay [1] and in assay [2] were 108 nM and 34.8 nM, respectively.
For the compound `O=C(Nc1ccc(OC2CN(C(=O)C3CCCC3)C2)cc1)C1CN(c2ccnnc2)C1` [Example 259, N-(4-{[1-(cyclopentylcarbonyl)azetidin-3-yl]oxy}phenyl)-1-(pyridazin-4-yl)azetidine-3-carboxamide], the half-inhibitory concentration (IC50) in assay [1] amounted to 32.5 nM; in assay [2], 17.7 nM.
On to `CC(C)(C)CC(=O)N1CCC(Oc2ccc(NC(=O)C3CN(c4ccnnc4)C3)cc2)CC1` [Example 260, N-(4-{[1-(3,3-dimethylbutanoyl)piperidin-4-yl]oxy}phenyl)-1-(pyridazin-4-yl)azetidine-3-carboxamide], for which the IC50 was determined as 75.4 nM in assay [1] and 19 nM in assay [2].
Consider `O=C(Nc1ccc(OC2CN(C(=O)C3CCC3)C2)cc1)C1CN(c2ccnnc2)C1` [Example 261, N-(4-{[1-(cyclobutylcarbonyl)azetidin-3-yl]oxy}phenyl)-1-(pyridazin-4-yl)azetidine-3-carboxamide], for which the half-inhibitory concentration (IC50) is 62.9 nM in assay [1] and 23.7 nM in assay [2].
Regarding `O=C(Nc1ccc(OC2CN(C(=O)C3CCCO3)C2)cc1)C1CN(c2ccnnc2)C1` (stereo not shown) [Example 262, 1-(pyridazin-4-yl)-N-(4-{[1-(tetrahydrofuran-2-ylcarbonyl)azetidin-3-yl]oxy}phenyl)azetidine-3-carboxamide], the half-maximal inhibitory concentration (IC50) in assay [1] is 130 nM; in assay [2], 34.3 nM.
As for `CC(C)CCC(=O)N1CC(Oc2ccc(NC(=O)C3CN(c4ccnnc4)C3)cc2)C1` [Example 263, N-(4-{[1-(4-methylpentanoyl)azetidin-3-yl]oxy}phenyl)-1-(pyridazin-4-yl)azetidine-3-carboxamide], the IC50 was 31.3 nM in assay [1] and 20.2 nM in assay [2].
Turning to `CC(C)C(=O)N1CC(Oc2ccc(NC(=O)C3CN(c4ccnnc4)C3)cc2)C1` [Example 264, N-(4-{[1-(2-methylpropanoyl)azetidin-3-yl]oxy}phenyl)-1-(pyridazin-4-yl)azetidine-3-carboxamide], the 50% inhibitory concentration (IC50) in assay [1] was 52.8 nM; in assay [2], 13.4 nM.
Regarding `CC[C@H](C)C(=O)N1CC(Oc2ccc(NC(=O)C3CN(c4ccnnc4)C3)cc2)C1` [Example 265, N-[4-({1-[(2S)-2-methylbutanoyl]azetidin-3-yl}oxy)phenyl]-1-(pyridazin-4-yl)azetidine-3-carboxamide], the IC50 in assay [1] was 29.5 nM; in assay [2], 21.8 nM.
For the compound `CC(C)CC(=O)N1CCC(Oc2ccc(NC(=O)C3CN(c4ccnnc4)C3)cc2)CC1` [Example 266, N-(4-{[1-(3-methylbutanoyl)piperidin-4-yl]oxy}phenyl)-1-(pyridazin-4-yl)azetidine-3-carboxamide], the concentration for half-maximal inhibition (IC50) worked out at 120 nM in assay [1] and 53.2 nM in assay [2].
Take `COCC(=O)N1CCC(Oc2ccc(NC(=O)C3CN(c4ccnnc4)C3)cc2)CC1` [Example 267, N-(4-{[1-(methoxyacetyl)piperidin-4-yl]oxy}phenyl)-1-(pyridazin-4-yl)azetidine-3-carboxamide]: the IC50 worked out at 274 nM in assay [1] and 56.5 nM in assay [2].

In general, IC50 refers to the concentration that inhibits the measured activity by half.

The values above are taken from US8975398B2, “NAMPT inhibitors” (AbbVie Inc., priority 2012, dated 2015).
